Data reported in US20230355613A1, “METHODS FOR TREATING PANCREATIC DUCTAL ADENOCARCINOMA” (HEALTH RESEARCH, INC., priority 2022, published 2023).

Tests used:
[1] = test system: HPNE cells; assay: 72-hour dose-response cell viability assay (CellTiter-Glo); assay type: cell-based; details: Homo sapiens, HPNE non-transformed pancreatic epithelial cells
Description: (§1) PDAC cells are sensitive to chemical inhibition of CPSF3. CPSF3 was recently identified as the target for the small molecule JTE-607. JTE-607 is a prodrug that, when metabolized by the ester hydrolyzing enzyme carboxylesterase 1 (CES1), binds to CPSF3 and inhibits its catalytic activity, impairing the processing of newly synthesized mRNAs. As genetic depletion of CPSF3 attenuated PDAC cell proliferation (FIG. 1), it 2as hypothesized that pharmacologic inhibition of CPSF3 with JTE-607 could represent a novel therapeutic approach in PDAC. The sensitivity of multiple human pancreatic cell lines, both non-transformed and PDAC, to JTE-607 in a 72-hour dose-response cell viability assay was examined. […] To examine if sensitivity to CPSF3 inhibition was associated with proliferation rate, the relationship between cell line doubling time and JTE-607 sensitivity was assessed. […] Next, the effect of JTE-607 on cell proliferation by treating cells with increasing concentrations of JTE-607 and assessing cell viability in a time-dependent fashion (FIGS. 2C-2E) was determined. […] Finally, the effect of JTE-607 on colony formation in PDAC cell lines was tested. […] Therefore, JTE-607 selectively attenuates proliferation of PDAC cells over non-transformed pancreatic cells.
(§2) JTE-607 studies. For dose-response measurements, cells were seeded at a density of 1000 cells per well in a 96-well white plate. The next day, JTE-607 was titrated over a range of concentrations using the Tecan D300e Digital Dispenser and cell viability was measured 72 hours post drug titration using a CellTiter-Glo Luminescent Cell Viability Assay Kit (Promega). For cell proliferation experiments, cells were seeded at a density of 250 cells per well in a 96-well white plate. DMSO control or JTE-607 was dispensed at varying concentrations and proliferation was measured using CellTiter-Glo Assay at days 0, 2, 4 and 6. For clonogenicity experiments, cells were seeded at a concentration of 500 cells per well and treated with different concentrations of JTE-607. Cells were allowed to grow over a period of 11-14 days after which they were fixed in 10% formalin, stained with 0.2% Crystal Violet and images were obtained for analysis. Colony area was measured using ImageJ software. Data were normalized to DMSO control data points.

[2] = test system: Panc1 cells; assay: as above; assay type: cell-based; details: Homo sapiens, PANC-1, Panc1 PDAC cells
Description: as §1, §2

CCOC(=O)[C@H](Cc1ccccc1)NC(=O)c1cc(Cl)c(OCCN2CCN(C)CC2)c(Cl)c1O [JTE-607]
IC50 [1]: 130 µM
IC50 [2]: 2.16 µM
